For one compound, kcat/KM results are on record in patent US10184115B2, “Mutated cellobiose dehydrogenase with increased substrate specificity” (DIRECTSENS GMBH, priority 2012, dated 2019).

By kcat/KM is commonly meant the second-order rate constant that governs catalysis at low substrate concentration.

The target of this assay is T1, Myriococcum thermophilum cellobiose dehydrogenase (CDH, SEQ ID NO: 1) variant R622N (Thermothelomyces myriococcoides, UniProt A9XK88, R622N).
T1 sequence (A9XK88 22-828 R622N): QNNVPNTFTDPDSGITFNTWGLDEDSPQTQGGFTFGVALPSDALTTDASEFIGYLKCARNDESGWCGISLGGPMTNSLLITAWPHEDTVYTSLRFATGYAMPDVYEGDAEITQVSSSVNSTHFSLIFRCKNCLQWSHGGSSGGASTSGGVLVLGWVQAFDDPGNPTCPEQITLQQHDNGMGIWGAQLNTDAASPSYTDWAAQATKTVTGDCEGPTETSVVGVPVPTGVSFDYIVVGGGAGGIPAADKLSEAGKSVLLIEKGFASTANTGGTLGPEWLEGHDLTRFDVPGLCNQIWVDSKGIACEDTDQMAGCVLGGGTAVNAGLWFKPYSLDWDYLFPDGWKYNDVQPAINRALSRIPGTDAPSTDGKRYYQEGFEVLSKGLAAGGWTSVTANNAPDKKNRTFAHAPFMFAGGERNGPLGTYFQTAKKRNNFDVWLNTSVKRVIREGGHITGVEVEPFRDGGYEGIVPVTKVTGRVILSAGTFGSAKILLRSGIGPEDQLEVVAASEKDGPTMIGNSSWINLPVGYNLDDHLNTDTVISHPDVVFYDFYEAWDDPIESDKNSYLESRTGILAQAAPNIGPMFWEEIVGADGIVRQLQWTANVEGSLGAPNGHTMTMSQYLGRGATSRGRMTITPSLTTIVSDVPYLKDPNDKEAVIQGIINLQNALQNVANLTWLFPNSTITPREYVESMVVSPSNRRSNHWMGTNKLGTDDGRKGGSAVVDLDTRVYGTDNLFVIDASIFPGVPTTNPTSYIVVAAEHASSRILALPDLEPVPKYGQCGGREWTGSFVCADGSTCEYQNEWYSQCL
Briefly: Steady-state kinetics, DCIP assay: M. thermophilum CDH R622N. In kind it is biochemical. The note with it: apparent, pH 4.5, 30° C. The method, then: Enzyme activity was assayed at 30° C. using either the DCIP (Karapetyan et al., 2005 Journal of Biotechnology 121: 34-48) or cytochrome c (Canevascini et al., 1991, European Journal of Biochemistry 198: 43-52) as electron acceptor. […] Stock solutions of carbohydrates used for kinetic measurements were prepared in the respective buffer and allowed to stand overnight for mutarotation, while stock solutions of electron acceptors were prepared in water and immediately used. The reaction stoichiometry is 1 for the two-electron acceptor DCIP (1 mole of DCIP reduced per mole of carbohydrate oxidized), but 2 for the one-electron acceptor cytochrome c. Kinetic constants were calculated by fitting the observed data to the Henri-Michaelis-Menten equation or to the adapted model for substrate inhibition using nonlinear least-squares regression and the program SigmaPlot (Systat Software, San Jose, Calif., USA). […]
Recombinant wild-type CDH as well as variants were produced in 1 L baffled flasks. […] Increase in activity was monitored using the DCIP and the cytochrome c enzyme assays. […]
The sample was loaded on a 20 mL PHE Sepharose FF column (HR26/20) equilibrated with 50 mM Na-acetate buffer pH 5.5 containing 20% ammonium sulfate. […] Fractions were tested for CDH activity and pooled according to the highest Reinheitszahl (RZ, calculated from the absorbance ratio 420 nm/280 nm). […]

With `OC[C@H]1O[C@H](O[C@H]2[C@H](O)[C@@H](O)C(O)O[C@@H]2CO)[C@H](O)[C@@H](O)[C@@H]1O` (stereo partly shown) [Maltose, maltose], the specificity constant (kcat/KM) was found to be 5.2 M⁻¹ s⁻¹.
